This is an account of results in patent US5486597A, “Tetrapeptide derivatives and analogues” (James Black Foundation Limited, priority 1990, dated 1996).

As usually defined, the pKB is the KB on a negative log10 scale, so that one unit is a factor of ten. Low values mean a large KB, high ones a small KB.

Non-standard residues stand in square brackets, D forms with d. Residues, ends and D or L forms follow the SMILES beside them. *: point of attachment. 2Nal = N[C@@H](Cc1ccc2ccccc2c1)C(=O)O; Boc = CC(C)(C)OC(=O)*

Common to all, as to format: cell-based
Test [1] has as its target T1, gastrin receptor (Mus musculus, UniProt P56481).
T1 construct: assayed for gastrin activity using the mouse stomach assay; from tissue; host or cells: isolated mouse stomach
T1 sequence (P56481 1-453): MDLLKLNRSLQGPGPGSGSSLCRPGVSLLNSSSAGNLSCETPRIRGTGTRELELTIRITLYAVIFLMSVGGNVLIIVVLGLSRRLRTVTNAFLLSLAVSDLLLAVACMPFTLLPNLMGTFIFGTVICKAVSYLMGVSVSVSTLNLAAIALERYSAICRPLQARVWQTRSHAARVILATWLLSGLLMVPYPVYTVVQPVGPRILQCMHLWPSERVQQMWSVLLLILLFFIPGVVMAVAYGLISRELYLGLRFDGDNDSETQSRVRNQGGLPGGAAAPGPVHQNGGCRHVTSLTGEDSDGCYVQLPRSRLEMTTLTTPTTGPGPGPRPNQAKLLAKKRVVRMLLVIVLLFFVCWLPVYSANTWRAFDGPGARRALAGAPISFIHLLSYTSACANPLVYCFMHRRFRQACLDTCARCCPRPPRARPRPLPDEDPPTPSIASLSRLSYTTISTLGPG
As to the kind of experiment: mouse stomach assay for gastrin activity (isolated stomach, acid secretion). On the procedure: The compounds were assayed for gastrin activity using the mouse stomach assay as described by Black, J. W. and Shankley, N. P., Br. J. Pharmacol., 86, 571-579, (1985), and also in the guinea-pig fundus assay, as follows: […]

Test [2] addresses T2, gastrin receptor (Cavia porcellus, UniProt H0VZC5).
T2 construct: Strips of muscle (approximately 2.5 cm by 1 cm) are removed from the proximal area of the stomach; from tissue; host or cells: guinea-pig proximal stomach (fundus) muscle strips
T2 sequence (H0VZC5 1-426): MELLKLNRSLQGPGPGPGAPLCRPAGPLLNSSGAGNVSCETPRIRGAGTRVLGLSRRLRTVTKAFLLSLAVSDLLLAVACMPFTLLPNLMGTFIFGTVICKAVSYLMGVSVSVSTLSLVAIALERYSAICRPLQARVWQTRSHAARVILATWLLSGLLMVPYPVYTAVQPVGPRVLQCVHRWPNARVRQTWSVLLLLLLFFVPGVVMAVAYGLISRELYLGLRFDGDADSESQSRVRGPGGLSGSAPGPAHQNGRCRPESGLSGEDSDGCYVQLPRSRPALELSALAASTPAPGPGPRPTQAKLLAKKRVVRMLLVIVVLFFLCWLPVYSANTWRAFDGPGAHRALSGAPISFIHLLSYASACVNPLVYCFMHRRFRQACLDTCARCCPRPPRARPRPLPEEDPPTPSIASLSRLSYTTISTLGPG
As to the kind of experiment: guinea-pig fundus assay for gastrin activity (stomach muscle strips). The following applies: 10^-8 M devazepide present, 60 minute equilibration, agonist e.g. pentagastrin, standard errors less than 5%. On the procedure: The compounds were assayed for gastrin activity using the mouse stomach assay as described by Black, J. W. and Shankley, N. P., Br. J. Pharmacol., 86, 571-579, (1985), and also in the guinea-pig fundus assay, as follows:
The stomach is removed from a male Dunkin-Hartley guinea-pig (250-500 g), and Krebs solution is injected through a hypodermic needle under the top stomach muscle layer. The composition (mM) of the Krebs solution is as follows: Na^+ 143, K^+ 5.9, Ca^2+ 2.5, Mg^2+ 1.2, Cl^- 128, H2 PO4^- 2.2, HCO3^- 24.9, SO4^2- 1.2, dextrose 10. Strips of muscle (approximately 2.5 cm by 1 cm) are removed from the proximal area of the stomach (one from each side) and tied with cotton thread to isotonic transducers under an initial loading tension of 0.35 g.
The preparation is immersed in 20 mls of Krebs solution containing 10^-8 M devazepide (25 μl 2×10^-3 M devazepide/100% DMF solution in 5 dm^3 Krebs) and gassed with 95% O2 /5% CO2. The function of the devazepide is to block possible effects at CCK receptors present in the tissue.
The preparation is washed twice over a 60 minute period then 10 mM KCl is added. At 90 minutes, test compounds (ie. potential antagonists) are added and a further 60 minute equilibration period allowed. After this time, cumulative agonist (e.g. pentagastrin) dose-response curves are constructed.

In test [3] the target is T3, cholecystokinin receptors (Cavia porcellus, UniProt Q63931).
T3 construct: Isolated, strip preparations were prepared from gall-bladders removed from male Dunkin-Hartley guinea-pigs; from tissue; host or cells: guinea-pig gall-bladder strips
T3 sequence (Q63931 1-430): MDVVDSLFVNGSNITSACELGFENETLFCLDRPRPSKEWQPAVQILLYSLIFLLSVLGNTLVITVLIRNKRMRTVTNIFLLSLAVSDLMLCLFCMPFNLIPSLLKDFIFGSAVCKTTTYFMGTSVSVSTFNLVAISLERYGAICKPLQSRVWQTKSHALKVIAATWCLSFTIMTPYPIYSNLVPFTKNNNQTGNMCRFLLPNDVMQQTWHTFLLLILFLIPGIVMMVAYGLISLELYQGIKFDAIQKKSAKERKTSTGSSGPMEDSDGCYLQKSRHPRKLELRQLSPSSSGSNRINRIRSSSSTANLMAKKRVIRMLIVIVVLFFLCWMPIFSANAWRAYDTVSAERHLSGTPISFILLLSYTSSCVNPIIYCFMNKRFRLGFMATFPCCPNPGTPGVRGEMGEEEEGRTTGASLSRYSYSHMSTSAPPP
As to the kind of experiment: CCK-antagonist activity in isolated guinea-pig gall-bladder strip preparations. Particulars: guinea-pig gall-bladder strips; CCK-8 as agonist; test compound incubated for 60 minutes; standard errors less than 5%. How it is done:
The compounds of the invention were also assayed for CCK-antagonist activity as follows:
Isolated, strip preparations were prepared from gall-bladders removed from male Dunkin-Hartley guinea-pigs (250-500 g body weight) according to the method of La Morte, W. W., et al., J.P.E.T., 217, (3), 638-644 (1981).
The complete gall-bladder is removed and opened along the longitudinal axis. Strips measuring 3 mm in the longitudinal axis and 1 mm in the transverse axis are cut and then tied with cotton to stainless steel wires. The preparation is connected to a GRASS FTO3 isometric transducer under an initial loading tension of 1 g and is immersed in 20 mls of Krebs solution maintained at 37° C. and gassed with 95% O2 /5% CO2. The Krebs solution is as detailed above in connection with the fundus assay, except that the Ca^2+ concentration is decreased to 0.5 mM. After 30 mins the preparation is washed. Drug addition begins after an initial 90 min stabilisation period. Responses are measured as changes in tension from that immediately prior to any drug addition. Single cumulative agonist concentration-effect curves, using CCK-8 as agonist, are obtained on each preparation in the absence and presence of test compound which has been incubated for 60 minutes. The antagonist activity of the test compound is estimated and expressed as the negative logarithm (base 10) of the equilibrium dissociation constants (pK8) using the modifications of standard competitive analysis described by Black et al., Br. J. Pharmacol.,86,571-579, (1985) and Shankley et al., Br. J. Pharmacol.,94,264-274 (1988).

Regarding `CN(C)C(=O)[C@H](Cc1ccccc1)NC(=O)[C@H](CC(=O)O)NC(=O)[C@H](Cc1ccc2ccccc2c1)NC(=O)[C@H](Cc1c[nH]c2ccccc12)NC(=O)OC(C)(C)C` [Example 6, N-t-Butyloxycarbonyl-L-tryptophyl-L-3-(2-naphthyl)alanyl-L-aspartyl-L-phenylalanyl-(N,Ndimethyl)amide] (Boc-W[2Nal]DF-NMe2), the pKB mouse stomach at gastrin receptor [1] (isolated mouse stomach assay, gastrin antagonism, standard errors less than 5%) turned out to be 5.6. The “Acid seretion at 10^-5 M test compound, relative to pentagastrin (%)” value at gastrin receptor [1] (mouse stomach, 10^-5 M test compound, relative to pentagastrin, NS = not significant) came to 22%. Moreover, on gastrin receptor [2], the pKB is given as 5.6.
As for `CC(C)(C)OC(=O)N[C@@H](Cc1c[nH]c2ccccc12)C(=O)N[C@@H](Cc1ccc2ccccc2c1)C(=O)N[C@@H](CC(=O)O)C(=O)NCCc1ccc([N+](=O)[O-])cc1` [Example 30, N-t-Butyloxycarbonyl-L-tryptophyl-L-3-(2-naphthyl)alanyl-L-aspartyl-4-nitrophenethylamide], the pKB at gastrin receptor [2] came to 5.7; in test [3] it was 6.6.
In the same order, the values of `Cc1cccc(CCNC(=O)[C@H](CC(=O)O)NC(=O)[C@H](Cc2ccc3ccccc3c2)NC(=O)[C@H](Cc2c[nH]c3ccccc23)NC(=O)OC(C)(C)C)c1` [Example 39, N-t-Butyloxycarbonyl-L-tryptophyl-L-3-(2-naphthyl)alanyl-L-aspartyl-3-methylphenethylamide] are 5.4 and 6.7.
For `CC(C)(C)OC(=O)N[C@@H](Cc1c[nH]c2ccccc12)C(=O)N[C@@H](Cc1ccc2ccccc2c1)C(=O)N[C@@H](CC(=O)O)C(=O)NCCc1ccncc1` [Example 44, N-t-Butyloxycarbonyl-L-tryptophyl-L-3-(2-naphthyl)alanyl-L-aspartyl-2-(4-pyridyl)ethylamide], the pKB at gastrin receptor [2] is listed as 6.0; in test [3], 6.2.
For `COc1cc2c(cc1OC)CN(C(=O)C(CC(=O)O)NC(=O)C(Cc1ccc3ccccc3c1)NC(=O)C(Cc1c[nH]c3ccccc13)NC(=O)OC(C)(C)C)CC2` [Example 48, N-t-Butyloxycarbonyl-L-tryptophyl-L-3-(2-naphthyl)alanyl-L-aspartyl-2-N-(6,7-dimethoxy-1,2,3,4-tetrahydro)isoquinolinamide] the same measures were 5.7 and 6.6.
Regarding `CC(C)(C)OC(=O)N[C@@H](Cc1c[nH]c2ccccc12)C(=O)N[C@@H](Cc1ccc2ccccc2c1)C(=O)N[C@@H](CC(=O)O)C(=O)NCCc1ccc(S(N)(=O)=O)cc1` [Example 49, N-t-Butyloxycarbonyl-L-tryptophyl-L-3-(2-naphthyl)alanyl-L-aspartyl-4-sulphonamidophenethylamide], the pKB worked out at 6.2 at gastrin receptor [2] and 6.8 in test [3].
For `COc1ccc(CNC(=O)[C@H](CC(=O)O)NC(=O)[C@H](Cc2ccc3ccccc3c2)NC(=O)[C@H](Cc2c[nH]c3ccccc23)NC(=O)OC(C)(C)C)cc1` [Example 51], the pKB on gastrin receptor [2] is 5.7; in test [3], 7.0.
`CC(C)(C)OC(=O)N[C@@H](Cc1c[nH]c2ccccc12)C(=O)N[C@@](C)(Cc1ccc2ccccc2c1)C(=O)N[C@@H](CC(=O)O)C(=O)N[C@@H](Cc1ccccc1)C(N)=O` [Example 57, N-t-Butyloxycarbonyl-L-tryptophyl-L-2-methyl-3-(2-naphthyl)alanyl-L-aspartyl-L-phenylalaninamide]: the results for the pKB (on gastrin receptor [2]; in test [3]) were 5.6 and 6.0, respectively.
In the same order, the values of `COc1ccc(CCNC(=O)[C@H](CCC(=O)O)NC(=O)[C@H](Cc2ccc3ccccc3c2)NC(=O)[C@H](Cc2c[nH]c3ccccc23)NC(=O)OC(C)(C)C)cc1` [Example 61, N-t-Butyloxycarbonyl-L-tryptophyl-L-3-(2-naphthyl)alanyl-L-glutamyl-4-methoxyphenethylamide] are 5.7 and 6.5.
In the same order, the values of `CC(C)(C)CCNC(=O)[C@H](CC(=O)O)NC(=O)[C@H](Cc1ccc2ccccc2c1)NC(=O)[C@H](Cc1c[nH]c2ccccc12)NC(=O)OC(C)(C)C` [Example 64, N-t-Butyloxycarbonyl-L-tryptophyl-L-3-(2-naphthyl)alanyl-L-aspartyl-3,3-dimethylbutylamide] are 5.9 and 7.0.
For “N-t-Butyloxycarbonyl-L-tryptophyl-L-3-(2-naphthyl)alanyl-L-aspartyl-1-indanylamide [Example 25]” the same measures were 5.7 and 6.3.
“N-t-Butyloxycarbonyl-L-tryptophyl-L-3-(2-naphthyl)alanyl-L-aspartyl-3,4-dimethoxyphenethylamide [Example 41]”: the values for the pKB (at gastrin receptor [2]; in test [3]) were 6.0 and 6.5, respectively.
In the same order, the values of “N-t-Butyloxycarbonyl-L-tryptophyl-L-3-(2-naphthyl)alanyl-L-aspartyl-4-hydroxyphenethylamide [Example 38]” are 5.9 and 7.1.
For the molecule “N-t-Butyloxycarbonyl-L-tryptophyl-L-3-(2-naphthyl)alanyl-L-aspartyl-L-3-cyclohexylalaninamide [Example 36]”, the pKB at gastrin receptor [2] worked out at 5.4; in test [3], 6.3.
In the same order, the values of “N-t-Butyloxycarbonyl-L-tryptophyl-L-3-(2-naphthyl)alanyl-L-aspartyl-trans- 2-phenylcyclopropylamide [Example 29]” are 6.0 and 5.9.
“N-t-Butyloxycarbonyl-L-tryptophyl-L-3-(2-naphthyl)alanyl-L-aspartyl-α-2-phenethylester [Example 63]”: the values for the pKB (on gastrin receptor [2]; in test [3]) were 5.9 and 7.0, respectively.
